Experimental data taken from US11660265B2, “Method of rapidly achieving therapeutic concentrations of triptans for treatment of migraines and cluster headaches” (ZP Opco, Inc., priority 2018, dated 2023).
Values after ≈ are worked out from the molar mass of the structure shown. Like-named read-outs stand apart in the source and are kept apart here.

Tests used:
[1] = target: T1, recombinant human 5-HT1B receptors (Homo sapiens, UniProt P28222); experiment: Ligand-receptor binding kinetics, 3H-5-carboxamidotryptamine competition, CHO-K1 membranes
T1 construct: expressed in transfected cells; host or cells: CHO-K1
Description: (§1) Membrane preparations were derived from transfected CHO-K1 cells expressing recombinant human 5-HT1B and 5-HT1D receptors. […] After incubating for various lengths of time, membranes were washed by filtration and residual ^3H counts were determined on a microplate scintillation counter. On-rate constant (kon), off-rate constant (koff), and equilibrium dissociation constant (KD) were determined using nonlinear regression on Prism 4 (GraphPad), and Xlfit (IDBM) software. The following formulae were used in calculating additional parameters using previously derived^2 pharmacokinetic data in healthy human volunteers. Residence time for each ligand on 5-HT1B and 5-HT1D receptors=1/koff.

[2] = target: T2, recombinant human 5-HT1D receptors (Homo sapiens, UniProt P28221); experiment: as above
T2 construct: expressed in transfected cells; host or cells: CHO-K1
Description: as §1

5HT1B/1D = conditions: cited from earlier work
[3] = cited from earlier work; for Bioavailability: oral tablet
clinical = experiment: clinical
Description: The final treatment administered was 3.8 mg on a 10 cm^2 patch using an applicator with 0.52 Joule of application energy in the intracutaneous microneedle system described herein. The products tested were:
This was a single-center, open-label, randomized five-way crossover study (Part 1) followed by a sequential study of two additional treatments (Parts 2 and 3). After obtaining informed consent and establishing eligibility, each subject received each of the seven study treatments once, followed by in-clinic monitoring and extensive blood sample collection for pharmacokinetic analysis. […] Plasma samples from the initial dosing days were sent to the analytical laboratory for analysis, and tolerability for each of the dose levels was summarized. […] During Part 3, subjects received a single 3.8 mg patch (applied with a 0.52 J applicator) and also completed identical procedures to the previous dosing days. After completion of the seven dosing days, subjects were assessed one final time and dismissed from the study.
Twenty subjects were enrolled in the study, 10 males and 10 females. The subjects mean age was 29 years±3.5 years with a mean BMI of 24.4±3.5.
PK parameters were summarized by treatment group using descriptive statistics (arithmetic means, standard deviations, coefficients of variation, sample size, minimum, maximum, and median).

migraine = conditions: cited from earlier work; for Pain freedom at 2 hours / Pain relief at 2 hours: lowest oral dose
in vivo = experiment: in vivo; parameters: species or system swine; conditions: Yorkshire, pig, iv
Description: The M207 patch was tested in swine. Intravenously administered zolmitriptan was used as a control. The inner thigh of the swine was used as the site of administration.
The low limit of quantitation (LLOQ) and high-limit of quantitation (HLOQ) were 0.1 and 1000 ng/mL, respectively. A four minute method utilizing high performance liquid chromatography-electrospray ionization-tandem mass spectrometry (HPLC-ESI-MS/MS) was developed for quantitation of zolmitriptan and its two major metabolites in HGP plasma. The instrumentation consist of Agilent® 1200 pumps, CTC PAL® Autosampler with cooling stack, AB Sciex® TurboV® ESI source, and API 4000® mass spectrometer.
All plasma samples and standards were first protein precipitated using 100% methanol and then diluted with 30% solution of acetonitrile at 1:2 ratio (Plasma: 30% ACN), 20 μL of this solution was injected into autosample. The autosample was equipped with a 100 μL syringe and a 100 μL loop. […]
The HPLC method used was a reversed phase gradient method (0.0 min, 10% B; 0.5 min, 10% B; 1.0 min, 40% B; 1.7 min, 40% B; 2.1 min, 10% B; 4.0 min, 10% B). […] During the mass spectrometer acquisition, eleven MRM transitions were monitored. […] The peak areas under each corresponding MRM transitions were summed and compared to that of spiked standard plasma samples to calculated concentration for each sample. […]

[4] = Solubility of zolmitriptan in various acids; assay type: physicochemical; conditions: 5 °C, thermodynamic from solid, 2-8° C.
Source text: The suspension was then centrifuged.

[5] = both, human, in vivo, AUC0-2 hr (SD)
[6] = both, human, in vivo, AUC0-last (SD)
[7] = both, human, in vivo, AUC2 hrs, Mean
[8] = both, human, in vivo, AUCinf, Mean
[9] = both, human, in vivo, Cmax (SD)
[10] = both, human, in vivo, Cmax, Mean
[11] = both, human, in vivo, Tmax Med (Range)
[12] = both, human, in vivo, t1/2, Mean
[13] = plasma N-desmethyl zolmitriptan metabolite
[14] = plasma N-desmethyl zolmitriptan metabolite, in ng·h/mL

T2 sequence (P28221 whole entry): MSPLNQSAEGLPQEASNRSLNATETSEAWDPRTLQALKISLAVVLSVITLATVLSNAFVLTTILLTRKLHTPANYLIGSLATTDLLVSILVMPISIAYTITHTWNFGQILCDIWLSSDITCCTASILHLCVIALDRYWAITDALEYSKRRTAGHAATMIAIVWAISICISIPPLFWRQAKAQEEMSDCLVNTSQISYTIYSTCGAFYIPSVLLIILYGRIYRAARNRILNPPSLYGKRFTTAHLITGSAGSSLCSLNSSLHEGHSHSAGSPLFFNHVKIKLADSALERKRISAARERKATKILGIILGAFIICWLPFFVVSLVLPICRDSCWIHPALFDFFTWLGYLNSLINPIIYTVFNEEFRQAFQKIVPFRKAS
T1 sequence (P28222 whole entry): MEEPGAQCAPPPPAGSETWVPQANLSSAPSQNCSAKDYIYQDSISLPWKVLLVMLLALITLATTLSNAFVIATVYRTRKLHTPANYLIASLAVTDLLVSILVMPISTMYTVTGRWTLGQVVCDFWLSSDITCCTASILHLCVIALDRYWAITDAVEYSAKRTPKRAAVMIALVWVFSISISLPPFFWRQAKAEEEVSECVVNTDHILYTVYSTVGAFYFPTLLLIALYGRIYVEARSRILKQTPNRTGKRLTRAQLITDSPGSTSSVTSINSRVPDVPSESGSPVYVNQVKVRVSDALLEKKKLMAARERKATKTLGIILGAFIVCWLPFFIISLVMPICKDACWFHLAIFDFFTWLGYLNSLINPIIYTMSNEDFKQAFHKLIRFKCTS

## CNCCc1c[nH]c2ccc(C[C@H]3COC(=O)N3)cc12 [N-desmethyl zolmitriptan]
[1]
  Kd: 0.92 nM
  koff: 0.000833 s⁻¹
  kon: 900000 M⁻¹ s⁻¹
[2]
  Kd: 0.43 nM
  koff: 0.0009 s⁻¹
  kon: 2.1e+06 M⁻¹ s⁻¹
5HT1B/1D
  5HT1B/1D potency relative to the parent: 2 to 6 times

## CNS(=O)(=O)Cc1ccc2[nH]cc(CCN(C)C)c2c1 [Sumatriptan, sumatriptan]
[3]; conventional oral tablet
  Tmax: about 2 hours
[3]
  Bioavailability: about 15%
clinical; [5]
  AUC(0-t): 0.0709 µg·h/mL
clinical; [6]
  AUC(0-t): 0.101 µg·h/mL
clinical; [7]
  AUC(0-t): 0.0709 µg·h/mL
clinical; [8]
  AUC(0-inf): 0.105 µg·h/mL
clinical; [9]
  Cmax: 88.8 ng/mL
clinical; [10]
  Cmax: 88.8 ng/mL
clinical; [11]
  Tmax: 0.167 h
clinical; both, human, in vivo, sc, t1/2 Mean (SD)
  half-life: 1.14 h
clinical; both, human, in vivo, sc, tmax Median (Range)
  Tmax: 0.167 h
clinical; [12]
  half-life: 1.14 h
migraine; among those who achieved headache resolution, 6 mg, different trial
  24-hour recurrence rate: 38%

## CN(C)CCc1c[nH]c2ccc(C[C@H]3COC(=O)N3)cc12 [Zolmitriptan 2.5 mg Oral Tablet, zolmitriptan]
[3]; conventional release tablets
  Reduction of Cmax and AUC by administration with food: 13-16%
[3]
  Bioavailability: 41 and 48%
clinical; both, human, in vivo
  AUC0-last / Dose: 8.6 ng·h/mL/mg
  Time to peak plasma concentration of the N-desmethyl metabolite: 2.7 h
  Tmax of N-desmethyl metabolite: 2.71 h
  Tmax, Mean: 1.79 h
clinical; [5]
  AUC(0-t): 0.0047 µg·h/mL
clinical; both, human, in vivo, AUC0-last
  AUC(0-t): 0.0222 µg·h/mL
clinical; [6]
  AUC(0-t): 0.0222 µg·h/mL
clinical; [7]
  AUC(0-t): 0.00472 µg·h/mL
clinical; both, human, in vivo, AUC2 hrs, Median
  AUC(0-t): 0.00492 µg·h/mL
clinical; [8]
  AUC(0-inf): 0.0272 µg·h/mL
clinical; both, human, in vivo, AUCinf, Median
  AUC(0-inf): 0.0271 µg·h/mL
clinical; both, human, in vivo, AUCt, Mean
  AUC(0-t): 0.0222 µg·h/mL
clinical; both, human, in vivo, AUCt, Median
  AUC(0-t): 0.0226 µg·h/mL
clinical; both, human, in vivo, Cmax
  Cmax: 3.8 ng/mL
clinical; [9]
  Cmax: 3.8 ng/mL
clinical; [10]
  Cmax: 3.77 ± 1.51 ng/mL
clinical; both, human, in vivo, Cmax, Median
  Cmax: 3.7 ng/mL
clinical; both, human, in vivo, Tmax
  Tmax: 1.8 ± 1.27 h
clinical; both, human, in vivo, Tmax (range), median
  Tmax: 1 h
clinical; [11]
  Tmax: 1 h
clinical; both, human, in vivo, Tmax, Mean
  Tmax: 1.79 h
clinical; both, human, in vivo, Tmax, Median
  Tmax: 1 h
clinical; [12]
  half-life: 3.27 ± 0.8 h
clinical; both, human, in vivo, t1/2, Median
  half-life: 3.28 h

## CN(C)CCc1c[nH]c2ccc(C[C@H]3COC(=O)N3)cc12 [Zolmitriptan, zolmitriptan]
[3]; nasal administration
  Tmax: about 1.5 hours
[1]
  Kd: 1.47 nM
[1]; read-out: koff (converted)
  koff: 0.00127 s⁻¹
[1]; read-out: kon (converted)
  kon: 883000 M⁻¹ s⁻¹
[2]
  Kd: 0.34 nM
[2]; read-out: koff (converted)
  koff: 0.001 s⁻¹
[2]; read-out: kon (converted)
  kon: 2.9e+06 M⁻¹ s⁻¹
In vivo
  Tmax: 1 min
clinical; both, human, in vivo, 2.5 mg, AUC2 hrs Mean (SD)
  AUC(0-t): 0.00472 µg·h/mL
clinical; both, human, in vivo, 2.5 mg, AUCinf Mean (SD)
  AUC(0-inf): 0.0272 µg·h/mL
clinical; both, human, in vivo, 2.5 mg, Cmax Mean (SD)
  Cmax: 3.77 ng/mL
clinical; both, human, in vivo, 2.5 mg, t1/2 Mean (SD)
  half-life: 3.27 h
clinical; both, human, in vivo, 2.5 mg, tmax Median (Range)
  Tmax: 1 h
clinical; both, human, in vivo, t1/2 Mean (SD)
  half-life: 1.53 h
clinical; both, human, in vivo, tmax Median (Range)
  Tmax: 0.3 h
[4]; aqueous buffer, 0.1 M citric acid
  solubility: 88.6 mg/mL (≈ 308 mM)
[4]; aqueous buffer, 0.1 M maleic acid
  solubility: 50.5 mg/mL (≈ 176 mM)
[4]; aqueous buffer, 0.1 M succinic acid
  solubility: 59.1 mg/mL (≈ 206 mM)
[4]; aqueous buffer, 0.1 M tartaric acid
  solubility: 63.3 mg/mL (≈ 220 mM)
[4]; simulated gastric fluid, 0.1 M HCl
  solubility: 33.3 mg/mL (≈ 116 mM)
migraine
  Pain freedom at 2 hours: 29%
  Pain relief at 2 hours: 62%

## CNS(=O)(=O)CCc1ccc2[nH]cc(C3CCN(C)CC3)c2c1 [naratriptan]
migraine
  Pain freedom at 2 hours: 18%
  Pain relief at 2 hours: 49%

## CN(C)CCc1c[nH]c2ccc(C[C@H]3COC(=O)N3)cc12 [nasal treatment of zolmitriptan, zolmitriptan]
migraine; nasal treatment
  Patients pain free at 1 hour: about 10%

## CN(C)CCc1c[nH]c2ccc(C[C@H]3COC(=O)N3)cc12 [orally disintegrating tablets, zolmitriptan]
[3]; orally disintegrating tablets
  Tmax: about 3 hours

## zolmitriptan [Zolmitriptan 2.5 mg Oral Tablet]
clinical; [13]
  AUC2 hrs, Mean: 0.00231 µg·h/mL
  AUC2 hrs, Median: 0.00224 µg·h/mL
  Cmax, Mean: 2.08 ng/mL
  Cmax, Median: 2.04 ng/mL
clinical; [14]
  AUCinf, Mean: 14.55
  AUCinf, Median: 14.31
  AUCt, Mean: 13.71
  AUCt, Median: 13.76
